How the values were obtained:
Test in all cases: biochemical
Design in all cases: Kinase selectivity panel of 81 human kinases, ADP-Glo or HTRF, per cent inhibition at 1 uM
AMPKα1/β1/γ1 = molecular target: T1, AMPKα1/β1/γ1 (Homo sapiens, UniProt Q13131)
T1 construct: gene PRKAA1
In short: (§1)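 Kinase-panel selectivity profiling of 81 kinases with compound at 1000 nM.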

AXL = AXL (Homo sapiens, UniProt P30530)
In short: as §1

BMX = BMX (Homo sapiens, UniProt P51813)
In short: as §1

EPHA2 = EPHA2 (Homo sapiens, UniProt P29317)
In short: as §1

FGFR1 = FGFR1 (Homo sapiens, UniProt P11362)
In short: as §1

GSK3β = molecular target: T2, GSK3β (Homo sapiens, UniProt P49841)
T2 construct: gene GSK3B
In short: as §1

HGK = molecular target: T3, HGK (Homo sapiens, UniProt O95819)
T3 construct: gene MAP4K4
In short: as §1

HPK1 = molecular target: T4, HPK1 (Homo sapiens, UniProt Q92918)
T4 construct: gene MAP4K1
In short: as §1

IGF1R = IGF1R (Homo sapiens, UniProt P08069)
In short: as §1

MAP2K1 = MAP2K1 (Homo sapiens, UniProt Q02750)
In short: as §1

MARK1 = MARK1 (Homo sapiens, UniProt Q9P0L2)
In short: as §1

PKCα = molecular target: T5, PKCα (Homo sapiens, UniProt P17252)
T5 construct: gene PRKCA
In short: as §1

PLK2 = PLK2 (Homo sapiens, UniProt Q9NYY3)
In short: as §1

TRKB = molecular target: T6, TRKB (Homo sapiens, UniProt Q16620)
T6 construct: gene NTRK2
In short: as §1

BMX, sequence (P51813 whole entry): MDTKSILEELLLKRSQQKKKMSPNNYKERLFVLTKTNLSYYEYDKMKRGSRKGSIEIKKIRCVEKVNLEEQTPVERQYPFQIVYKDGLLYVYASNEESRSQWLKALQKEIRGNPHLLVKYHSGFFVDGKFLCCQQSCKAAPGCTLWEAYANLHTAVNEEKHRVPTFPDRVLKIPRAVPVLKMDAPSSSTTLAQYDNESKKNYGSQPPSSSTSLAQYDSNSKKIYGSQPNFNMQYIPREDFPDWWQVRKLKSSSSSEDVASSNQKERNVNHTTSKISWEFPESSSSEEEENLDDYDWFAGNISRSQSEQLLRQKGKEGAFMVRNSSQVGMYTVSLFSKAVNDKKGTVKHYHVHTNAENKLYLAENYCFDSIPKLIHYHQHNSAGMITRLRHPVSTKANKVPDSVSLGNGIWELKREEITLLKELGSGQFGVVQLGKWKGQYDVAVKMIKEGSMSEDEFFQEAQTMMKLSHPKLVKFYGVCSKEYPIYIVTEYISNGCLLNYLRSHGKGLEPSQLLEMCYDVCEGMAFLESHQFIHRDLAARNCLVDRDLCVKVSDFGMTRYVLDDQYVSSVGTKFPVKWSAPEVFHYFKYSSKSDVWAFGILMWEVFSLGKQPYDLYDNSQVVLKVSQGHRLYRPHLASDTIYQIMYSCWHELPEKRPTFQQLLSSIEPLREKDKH
MARK1, sequence (Q9P0L2 whole entry): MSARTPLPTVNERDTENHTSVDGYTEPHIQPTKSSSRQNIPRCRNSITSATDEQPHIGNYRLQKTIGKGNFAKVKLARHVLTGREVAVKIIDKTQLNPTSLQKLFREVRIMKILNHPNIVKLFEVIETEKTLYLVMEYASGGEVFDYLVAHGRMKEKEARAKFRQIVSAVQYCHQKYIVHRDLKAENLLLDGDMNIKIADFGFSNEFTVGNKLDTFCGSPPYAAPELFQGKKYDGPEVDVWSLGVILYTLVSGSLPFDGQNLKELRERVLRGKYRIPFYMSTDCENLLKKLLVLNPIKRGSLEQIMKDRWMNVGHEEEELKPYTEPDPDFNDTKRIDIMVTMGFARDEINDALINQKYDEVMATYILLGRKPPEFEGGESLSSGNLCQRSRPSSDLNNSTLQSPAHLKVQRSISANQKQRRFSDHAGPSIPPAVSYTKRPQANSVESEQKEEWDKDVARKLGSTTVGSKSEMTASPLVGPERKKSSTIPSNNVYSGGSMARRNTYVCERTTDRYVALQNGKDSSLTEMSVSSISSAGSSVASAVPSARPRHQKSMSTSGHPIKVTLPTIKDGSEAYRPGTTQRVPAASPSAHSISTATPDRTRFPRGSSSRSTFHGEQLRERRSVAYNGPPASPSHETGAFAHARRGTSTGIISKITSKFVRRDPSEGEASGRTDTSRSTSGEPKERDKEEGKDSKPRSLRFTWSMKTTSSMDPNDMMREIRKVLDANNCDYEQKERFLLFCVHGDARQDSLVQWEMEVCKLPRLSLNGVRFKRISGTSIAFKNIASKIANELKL
T1 sequence (Q13131 whole entry): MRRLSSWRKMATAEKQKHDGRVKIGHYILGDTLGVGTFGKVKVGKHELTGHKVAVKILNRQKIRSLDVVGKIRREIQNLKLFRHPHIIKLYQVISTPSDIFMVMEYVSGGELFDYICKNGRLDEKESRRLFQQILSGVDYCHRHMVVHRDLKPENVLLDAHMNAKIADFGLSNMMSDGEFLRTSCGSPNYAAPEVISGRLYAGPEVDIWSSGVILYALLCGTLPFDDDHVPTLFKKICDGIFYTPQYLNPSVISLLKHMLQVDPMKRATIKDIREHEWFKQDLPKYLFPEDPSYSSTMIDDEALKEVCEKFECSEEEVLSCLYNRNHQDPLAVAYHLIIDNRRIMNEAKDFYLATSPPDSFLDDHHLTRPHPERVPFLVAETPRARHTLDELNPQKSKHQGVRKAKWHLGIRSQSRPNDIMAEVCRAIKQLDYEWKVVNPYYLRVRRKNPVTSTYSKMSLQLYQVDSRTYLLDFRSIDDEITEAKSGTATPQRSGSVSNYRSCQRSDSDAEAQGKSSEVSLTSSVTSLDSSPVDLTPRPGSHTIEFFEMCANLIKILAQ
T1 sequence (P54619 whole entry partner): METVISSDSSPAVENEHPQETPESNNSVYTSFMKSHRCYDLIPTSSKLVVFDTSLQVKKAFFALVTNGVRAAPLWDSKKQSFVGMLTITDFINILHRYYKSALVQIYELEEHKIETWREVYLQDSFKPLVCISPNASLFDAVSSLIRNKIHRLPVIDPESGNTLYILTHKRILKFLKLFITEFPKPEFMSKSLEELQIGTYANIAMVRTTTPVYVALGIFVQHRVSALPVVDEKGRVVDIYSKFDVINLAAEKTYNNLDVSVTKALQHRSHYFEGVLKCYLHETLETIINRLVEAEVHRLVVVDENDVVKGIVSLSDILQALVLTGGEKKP
T1 sequence (Q9Y478 whole entry partner): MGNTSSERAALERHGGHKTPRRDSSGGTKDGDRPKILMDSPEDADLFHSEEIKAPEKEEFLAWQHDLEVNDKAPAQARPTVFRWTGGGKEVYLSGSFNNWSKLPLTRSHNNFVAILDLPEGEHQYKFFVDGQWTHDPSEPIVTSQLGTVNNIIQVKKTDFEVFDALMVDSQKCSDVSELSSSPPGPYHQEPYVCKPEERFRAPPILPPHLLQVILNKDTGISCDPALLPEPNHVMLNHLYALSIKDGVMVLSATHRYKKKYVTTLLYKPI
T3 sequence (O95819 whole entry): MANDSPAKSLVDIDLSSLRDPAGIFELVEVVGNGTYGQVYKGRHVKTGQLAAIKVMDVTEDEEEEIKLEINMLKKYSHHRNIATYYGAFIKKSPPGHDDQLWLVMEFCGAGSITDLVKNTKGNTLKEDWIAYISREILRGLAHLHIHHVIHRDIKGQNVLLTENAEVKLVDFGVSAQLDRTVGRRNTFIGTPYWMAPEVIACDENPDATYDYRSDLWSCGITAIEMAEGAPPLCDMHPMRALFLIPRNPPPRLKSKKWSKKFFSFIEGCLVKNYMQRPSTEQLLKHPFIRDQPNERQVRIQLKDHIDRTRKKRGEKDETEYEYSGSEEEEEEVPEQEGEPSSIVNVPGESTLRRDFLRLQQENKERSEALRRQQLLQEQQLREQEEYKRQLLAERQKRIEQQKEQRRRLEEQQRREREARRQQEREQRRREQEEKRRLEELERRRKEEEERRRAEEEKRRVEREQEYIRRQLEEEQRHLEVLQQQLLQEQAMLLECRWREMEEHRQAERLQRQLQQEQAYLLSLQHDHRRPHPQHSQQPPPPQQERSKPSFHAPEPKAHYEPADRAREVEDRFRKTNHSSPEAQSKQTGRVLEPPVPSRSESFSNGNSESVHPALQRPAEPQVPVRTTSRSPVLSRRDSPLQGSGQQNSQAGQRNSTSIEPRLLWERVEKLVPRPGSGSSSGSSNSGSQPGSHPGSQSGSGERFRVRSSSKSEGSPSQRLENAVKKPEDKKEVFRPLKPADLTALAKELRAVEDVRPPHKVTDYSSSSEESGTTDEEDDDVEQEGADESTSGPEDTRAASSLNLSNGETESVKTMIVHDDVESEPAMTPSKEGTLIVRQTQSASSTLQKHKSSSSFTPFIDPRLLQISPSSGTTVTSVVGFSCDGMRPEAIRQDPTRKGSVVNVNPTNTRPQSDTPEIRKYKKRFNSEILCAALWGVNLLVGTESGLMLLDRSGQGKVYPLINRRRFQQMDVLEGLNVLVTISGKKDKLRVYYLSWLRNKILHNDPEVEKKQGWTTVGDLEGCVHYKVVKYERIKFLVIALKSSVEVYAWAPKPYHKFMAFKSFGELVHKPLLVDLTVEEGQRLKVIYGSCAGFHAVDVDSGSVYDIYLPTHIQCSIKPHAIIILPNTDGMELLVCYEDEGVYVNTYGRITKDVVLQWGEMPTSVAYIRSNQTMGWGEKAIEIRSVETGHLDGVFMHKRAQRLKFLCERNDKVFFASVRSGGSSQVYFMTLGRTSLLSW
PLK2, sequence (Q9NYY3 whole entry): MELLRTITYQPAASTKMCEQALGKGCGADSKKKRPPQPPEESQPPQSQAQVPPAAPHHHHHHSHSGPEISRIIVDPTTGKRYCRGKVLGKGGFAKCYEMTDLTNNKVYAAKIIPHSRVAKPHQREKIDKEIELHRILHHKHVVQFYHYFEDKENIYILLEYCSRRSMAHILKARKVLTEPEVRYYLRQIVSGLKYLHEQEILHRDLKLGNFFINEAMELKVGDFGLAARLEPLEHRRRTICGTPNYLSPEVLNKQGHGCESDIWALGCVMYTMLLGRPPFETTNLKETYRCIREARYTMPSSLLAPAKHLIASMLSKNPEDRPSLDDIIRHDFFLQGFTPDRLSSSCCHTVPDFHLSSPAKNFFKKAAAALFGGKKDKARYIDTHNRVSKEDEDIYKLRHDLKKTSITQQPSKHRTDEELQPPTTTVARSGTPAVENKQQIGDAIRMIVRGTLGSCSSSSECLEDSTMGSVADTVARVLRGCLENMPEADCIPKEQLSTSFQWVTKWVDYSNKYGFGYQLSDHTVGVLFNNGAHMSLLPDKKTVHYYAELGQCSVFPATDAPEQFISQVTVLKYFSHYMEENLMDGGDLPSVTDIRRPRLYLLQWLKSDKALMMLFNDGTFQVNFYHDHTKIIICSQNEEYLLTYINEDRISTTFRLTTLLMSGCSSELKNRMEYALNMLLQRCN
MAP2K1, sequence (Q02750 whole entry): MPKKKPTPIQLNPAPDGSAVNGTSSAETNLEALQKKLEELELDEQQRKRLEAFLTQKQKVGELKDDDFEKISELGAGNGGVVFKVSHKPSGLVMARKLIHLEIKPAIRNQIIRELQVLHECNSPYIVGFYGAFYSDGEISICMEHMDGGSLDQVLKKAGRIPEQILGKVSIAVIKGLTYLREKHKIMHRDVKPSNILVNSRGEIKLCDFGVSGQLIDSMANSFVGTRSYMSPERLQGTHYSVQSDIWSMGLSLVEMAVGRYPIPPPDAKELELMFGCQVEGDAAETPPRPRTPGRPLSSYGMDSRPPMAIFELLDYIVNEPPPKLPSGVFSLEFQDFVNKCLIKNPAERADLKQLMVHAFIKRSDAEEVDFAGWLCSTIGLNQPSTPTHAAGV

Question: With Nc1cn2cc(-c3cnc4c(c3)N(C(=O)OC3CCCCC3)CCO4)ccc2n1 [Zharp1-163] as the molecule, how does the inhibition at 1 µM (AMPKα1/β1/γ1; replicate Data1) read?
Answer: 12.1%

Question: What about the inhibition at 1 µM (AMPKα1/β1/γ1; replicate Data2) of the same molecule?
Answer: 6.96%

Question: And the inhibition at 1 µM (AXL; replicate Data1)?
Answer: 10.9%

Question: What about the inhibition at 1 µM (AXL; replicate Data2) of the same molecule?
Answer: 1.24%

Question: What about the inhibition at 1 µM (BMX; replicate Data1) of the same molecule?
Answer: -3.03%

Question: What about the inhibition at 1 µM (BMX; replicate Data2) of the same molecule?
Answer: 11.3%

Question: What about the inhibition at 1 µM (EPHA2; replicate Data1) of the same molecule?
Answer: -8.55%

Question: And the inhibition at 1 µM (EPHA2; replicate Data2)?
Answer: -9.14%

Question: What about the inhibition at 1 µM (FGFR1; replicate Data1) of the same molecule?
Answer: 2.7%

Question: And the inhibition at 1 µM (FGFR1; replicate Data2)?
Answer: -0.57%

Question: What about the inhibition at 1 µM (GSK3β; replicate Data1) of the same molecule?
Answer: 11.8%

Question: And the inhibition at 1 µM (GSK3β; replicate Data2)?
Answer: -2.82%

Question: What about the inhibition at 1 µM (HGK; replicate Data1) of the same molecule?
Answer: 4.09%

Question: And the inhibition at 1 µM (HGK; replicate Data2)?
Answer: 11.5%

Question: What about the inhibition at 1 µM (HPK1; replicate Data1) of the same molecule?
Answer: 17%

Question: And the inhibition at 1 µM (HPK1; replicate Data2)?
Answer: 2.46%

Question: And the inhibition at 1 µM (IGF1R; replicate Data1)?
Answer: -8.23%

Question: What about the inhibition at 1 µM (IGF1R; replicate Data2) of the same molecule?
Answer: -5.7%

Question: And the inhibition at 1 µM (MAP2K1; replicate Data1)?
Answer: -8.67%

Question: And the inhibition at 1 µM (MAP2K1; replicate Data2)?
Answer: 0.16%

Question: What about the inhibition at 1 µM (MARK1; replicate Data1) of the same molecule?
Answer: -11.5%

Question: What about the inhibition at 1 µM (MARK1; replicate Data2) of the same molecule?
Answer: 4.11%

Question: And the inhibition at 1 µM (PKCα; replicate Data1)?
Answer: -5.43%

Question: And the inhibition at 1 µM (PKCα; replicate Data2)?
Answer: -7.15%

Question: What about the inhibition at 1 µM (PLK2; replicate Data1) of the same molecule?
Answer: -2.91%

Question: What about the inhibition at 1 µM (PLK2; replicate Data2) of the same molecule?
Answer: -19.7%

Question: And the inhibition at 1 µM (TRKB; replicate Data1)?
Answer: 61.4%

Question: What about the inhibition at 1 µM (TRKB; replicate Data2) of the same molecule?
Answer: 58.1%

— PMC12394658, “Discovery of Zharp1-163 as a dual inhibitor of ferroptosis and necroptosis for the treatment of inflammatory disorders and kidney injury” (Cell Death Discovery, 2025)
